Data on two compounds can be found in patent US20250152606A1, “INDUCTION OF IRREVERSIBLE INFERTILITY IN FEMALE MAMMALIAN ANIMALS USING A SINGLE PROGESTERONE IMPLANT” (THE BOARD OF TRUSTEES OF THE UNIVERSITY OF ILLINOIS, priority 2022, published 2025).

A short description of data set [1]: Serum P4 in neonatal rats after P4 treatment (P4-specific ELISA). Format: in vivo. The conditions noted are these: repeated daily injections of P4 (Oil-P4 group). The method, then: FIG. 2. Pharmacokinetics of progesterone treatment in neonatal rats. Three-day-old rats were treated with 2.0 mg P4 Silastic capsule, (n=5-7), injected daily with 0.5 mg P4 for 7 days (n=5-9), or vehicle (n=5-9).
(§1) Experiments with Silastic capsules. Neonatal female rats (3-day-old [D3]) were divided into 3 groups for the treatment (Chart 1). The Control group was subcutaneously (sc) injected with sesame oil daily for 7-days. The Oil-P4 group was injected sc with progesterone (P4) (0.5 mg P4/50 μl oil) daily for 7-days. The sC-P4 group was implanted sc with a given single P4 Silastic capsule (sC-P4) (2 mg P4/5 μl oil in a Silastic capsule having dimensions: ID 1.02 mm, OD 2.16 mm, Length 8 mm). Sera were collected by tail clipping (n=5-7) on days 6, 10, 14 and 24, and serum P4 was measured by P4-specific ELISA kit (EIA5486, DRG International Inc., NJ). Uterine histology was examined in weeks 7 and 28. Collected uterine tissues were fixed in 4% paraformaldehyde. Tissues were washed with ethanol, processed, and embedded in paraffin wax. Paraffin-embedded tissue blocks were cut into 6 μm thick sections. For general histological observation, slides were stained with hematoxylin and eosin (HE staining). The number of uterine glands was counted from HE-stained uterine tissue sections (n=2-4). At 5-months-old, the estrous cycle was monitored for 10 days by vaginal cytology (n=2-4). […]

The next data set has as its system uterine glands. The conditions noted are these: cited from earlier work.
A further data set concerns female rats. As to the kind of experiment: Fertility test with fertility-proven male rats. Format: in vivo. Particulars: neonatally treated rats tested at 5 months. The protocol:
Neonatal P4 Silastic capsule implant induces permanent infertility. Starting at 5-months of age, the estrous cycle was determined by microscopy of vaginal smears for 10 days (Table 1). […] After the estrous cycle observation, female rats were caged with fertility-proven male rats for 1 month to evaluate fertility. Seventy-five percent (¾) of the Control untreated and Oil-P4 groups were fertile, averaging 12 and 13 pups, respectively. By comparison, none of the sC-P4 was fertile.
as §1, with “Collected uterine tissues were fixed in 4% paraformaldehyde. Tissues were washed with ethanol, processed, and embedded in paraffin wax. Paraffin-embedded tissue blocks were cut into 6 μm thick sections. For general histological observation, slides were stained with hematoxylin and eosin (HE staining).” left out

The next data set deals with uterine gland. The conditions noted are these: repetitive injections of neonatal ewe lambs; oviduct, cervix, vagina not inhibited; cited from earlier work.

SMILES strings stand for the structures. Entries after “also recorded” stand apart in the source; their conditions may differ. Where two headings read alike, the source gives them in different places.

Turning to `CC(=O)[C@H]1CC[C@H]2[C@@H]3CCC4=CC(=O)CC[C@]4(C)[C@H]3CC[C@]12C` [P4, progesterone], in data set [1] (6 days after the start of injections), the “maximum increase in serum P4 levels compared to the Control” value amounted to 2 fold. In data set [1] (experimental day 16), the “time serum P4 remained significantly elevated” value is 10 days. Besides, the “adenogenesis at PND 10” value with uterine glands (mice treated with P4 during PND 3-5 or 7-9) is listed as “not”; in the data set on uterine glands (mice treated with P4 during PND 3-9, 5-9, or 3-7), “abolished adenogenesis”. The “uterine glands in adulthood” value in the data set with uterine glands (mice treated with P4 during PND 3-9) is reported as “lacked glands in adulthood; also recorded: lack uterine glands in adulthood”. Moreover, the “uterine gland development on PND 20” value in the data set on uterine glands (mice treated with P4 during PND 5-9 or 3-7) is “resumption of uterine gland development”. Further, in the data set on female rats, the fertility outcome is recorded as “insufficient to achieve infertility”.

Consider `CC(=O)O[C@]1(C(C)=O)CC[C@H]2[C@@H]3CCC4=CC(=O)CC[C@@H]4[C@H]3[C@@H](C)C[C@@]21C` [norgestomet], for which the adenogenesis result in the data set with uterine gland was “irreversibly inhibits adenogenesis”.
